Reference: patent US8796245B2 (TetraPhase Pharmaceuticals, Inc., priority 2008, dated 2014)
In brackets after ≈: the same amount, converted by molar mass.

Columns and labels:
Format in all cases: cell-based
[1] = tested on: P. aeruginosa ATCC 27853 (PA111); assay: Minimum inhibitory concentration assay, PA111; settings: Pseudomonas aeruginosa, ATCC27853; P. aeruginosa ATCC 27853, wt; read-out: MICs PA111
Experimental: (§1) Frozen bacterial strains were thawed and subcultured onto Mueller Hinton Broth (MHB) or other appropriate media (Streptococcus requires blood and Haemophilus requires hemin and NAD). Following incubation overnight, the strains were subcultured onto Mueller Hinton Agar and again incubated overnight. […] Isolated colonies were selected to prepare a starting inoculum equivalent to a 0.5 McFarland standard. The starting inoculum was diluted 1:125 using MHB for further use. Test compounds were prepared by dilution in sterile water to a final concentration of 5.128 mg/mL. Antibiotics (stored frozen, thawed and used within 3 hours of thawing) and compounds were further diluted to the desired working concentrations.
(§2) The assays were run as follows. Fifty μL of MHB was added to wells 2-12 of a 96-well plate. One hundred […] of appropriately diluted antibiotics was added to well 1. Fifty μL of antibiotics was removed from well 1 and added to well 2 and the contents of well 2 mixed by pipetting up and down five times. Fifty μL of the mixture in well 2 was removed and added to well 3 and mixed as above. Serial dilutions were continued in the same manner through well 12. Fifty μL was removed from well 12 so that all contained 50 μL. Fifty μL of the working inoculum was then added to all test wells. A growth control well was prepared by adding 50 μL of working inoculum and 50 μL of MHB to an empty well. The plates were then incubated at 37° C. overnight, removed from the incubator and each well was read on a plate reading mirror. The lowest concentration (MIC) of test compound that inhibited the growth of the bacteria was recorded.

[2] = tested on: E. cloacae ATCC 13047 (EC108); assay: Minimum inhibitory concentration assay, EC108; settings: Enterobacter cloacae, ATCC13047; E. cloacae ATCC 13047, wt; read-out: MICs EC108
Experimental: as §1, §2

[3] = tested on: K. pneumoniae ATCC 13883 (KP109); assay: Minimum inhibitory concentration assay, KP109; settings: Klebsiella pneumoniae, ATCC13883; K. pneumoniae ATCC 13883, wt; read-out: MICs KP109
Experimental: as §1, §2

[4] = tested on: E. faecalis EF159 (tet resistant: tetM); assay: Minimum inhibitory concentration assay, EF159; settings: Enterococcus faecalis, read-out: MICs EF159
Experimental: as §1, §2

[5] = tested on: S. pneumoniae ATCC 49619 (SP106); assay: Minimum inhibitory concentration assay, SP106; settings: Streptococcus pneumoniae, ATCC49619; S. pneumoniae ATCC 49619, wt; read-out: MICs SP106
Experimental: as §1, §2

[6] = tested on: S. aureus ATCC 29213 (SA101, MSSA); assay: Minimum inhibitory concentration assay, SA101; settings: Staphylococcus aureus; S. aureus ATCC 29213, MSSA control; read-out: MICs SA101
Experimental: as §1, §2

[7] = tested on: A. baumanii ATCC 19606 (AB110); assay: Minimum inhibitory concentration assay, AB110; settings: Acinetobacter baumannii, ATCC19606; A. baumanii ATCC 19606, wt; read-out: MICs AB110
Experimental: as §1, §2

[8] = tested on: E. coli ATCC 25922 (EC107); assay: Minimum inhibitory concentration assay, EC107; settings: Escherichia coli, ATCC25922; E. coli ATCC 25922, wt; read-out: MICs EC107
Experimental: as §1, §2

[9] = tested on: S. pneumoniae SP160 (tet resistant: tet M); assay: Minimum inhibitory concentration assay, SP160; settings: Streptococcus pneumoniae, read-out: MICs SP160
Experimental: as §1, §2

[10] = tested on: E. faecalis ATCC 29212 (EF103); assay: Minimum inhibitory concentration assay, EF103; settings: Enterococcus faecalis, ATCC29212, read-out: MICs EF103
Experimental: as §1, §2

[11] = tested on: E. coli EC155 (tet resistant: tetA efflux); assay: microbe, parasite or virus in culture; settings: Escherichia coli; E. coli tet resistant: tetA (efflux); read-out: MICs EC155
Experimental: as §1, §2

[12] = tested on: K. pneumoniae KP153 (tet resistant: tetA efflux); assay: microbe, parasite or virus in culture; settings: Klebsiella pneumoniae, read-out: MICs KP153
Experimental: as §1, §2

[13] = tested on: S. aureus SA158 (tet resistant: tetK efflux); assay: microbe, parasite or virus in culture; settings: Staphylococcus aureus, read-out: MICs SA158
Experimental: as §1, §2

[14] = tested on: S. aureus ATCC 13709 (SA100, MSSA, Smith strain); assay: Minimum inhibitory concentration assay, SA100; settings: Staphylococcus aureus; S. aureus ATCC 13709, MSSA Smith strain; read-out: MICs SA100
Experimental: as §1, §2

[15] = tested on: S. aureus SA161 (tet resistant: tet(M) ribosomal protection); assay: Minimum inhibitory concentration assay, SA161; settings: Staphylococcus aureus, read-out: MICs SA161
Experimental: as §1, §2

Row | SMILES | MIC [1] [µg/mL] | MIC [2] [µg/mL] | MIC [3] [µg/mL] | MIC [4] [µg/mL] | MIC [5] [µg/mL] | MIC [6] [µg/mL] | MIC [7] [µg/mL] | MIC [8] [µg/mL] | MIC [9] [µg/mL] | MIC [10] [µg/mL] | MIC [11] [µg/mL] | MIC [12] [µg/mL] | MIC [13] [µg/mL] | MIC [14] [µg/mL] | MIC [15] [µg/mL]
1 | CN(C)[C@@H]1C(O)=C(C(N)=O)C(=O)[C@@]2(O)C(O)=C3C(=O)c4c(O)c(NC(=O)CN5CCC5)cc(F)c4C[C@H]3C[C@@H]12 [Compound 32] | 8 (≈ 14.7 µM) | 1 (≈ 1.84 µM) | 1 (≈ 1.84 µM) | 0.125 (≈ 0.23 µM) | ≤ 0.0156 | 0.125 (≈ 0.23 µM) | 2 (≈ 3.67 µM) | 0.25 (≈ 0.459 µM) | ≤ 0.0156 | 0.0625 (≈ 0.115 µM) | 8 (≈ 14.7 µM) | 4 (≈ 7.35 µM) | 0.5 (≈ 0.918 µM) | 0.5 (≈ 0.918 µM) | 0.25 (≈ 0.459 µM)
2 | COC[C@@H]1CCCN1CC(=O)Nc1cc(F)c2c(c1O)C(=O)C1=C(O)[C@]3(O)C(=O)C(C(N)=O)=C(O)[C@@H](N(C)C)[C@@H]3C[C@@H]1C2 [Compound 41] | > 32 | 16 (≈ 26.6 µM) | 8 (≈ 13.3 µM) | 2 (≈ 3.32 µM) | 0.125 (≈ 0.207 µM) | 1 (≈ 1.66 µM) | 0.5 (≈ 0.83 µM) | 4 (≈ 6.64 µM) | 0.125 (≈ 0.207 µM) | 1 (≈ 1.66 µM) | 16 (≈ 26.6 µM) | 16 (≈ 26.6 µM) | 1 (≈ 1.66 µM) | 1 (≈ 1.66 µM) | 2 (≈ 3.32 µM)
3 | CN(C)[C@@H]1C(O)=C(C(N)=O)C(=O)[C@@]2(O)C(O)=C3C(=O)c4c(O)c(NC(=O)CN5CC[C@@H](F)C5)cc(F)c4C[C@H]3C[C@@H]12 [Compound 35] | > 32 | 8 (≈ 13.9 µM) | 4 (≈ 6.94 µM) | 0.25 (≈ 0.434 µM) | 0.016 (≈ 0.0278 µM) | 0.25 (≈ 0.434 µM) | 0.25 (≈ 0.434 µM) | 1 (≈ 1.73 µM) | 0.016 (≈ 0.0278 µM) | 0.125 (≈ 0.217 µM) | 16 (≈ 27.8 µM) | 8 (≈ 13.9 µM) | 0.5 (≈ 0.867 µM) | 0.25 (≈ 0.434 µM) | 0.5 (≈ 0.867 µM)
4 | CN(C)[C@@H]1C(O)=C(C(N)=O)C(=O)[C@@]2(O)C(O)=C3C(=O)c4c(O)c(NC(=O)CNC5CC5)cc(F)c4C[C@H]3C[C@@H]12 [Compound 17] | 32 (≈ 58.8 µM) | 8 (≈ 14.7 µM) | 4 (≈ 7.35 µM) | 1 (≈ 1.84 µM) | 0.0625 (≈ 0.115 µM) | 0.25 (≈ 0.459 µM) | 0.5 (≈ 0.918 µM) | 2 (≈ 3.67 µM) | 0.0625 (≈ 0.115 µM) | 0.25 (≈ 0.459 µM) | 32 (≈ 58.8 µM) | 32 (≈ 58.8 µM) | 2 (≈ 3.67 µM) | 0.5 (≈ 0.918 µM) | 1 (≈ 1.84 µM)
5 | CCCCNCC(=O)Nc1cc(F)c2c(c1O)C(=O)C1=C(O)[C@]3(O)C(=O)C(C(N)=O)=C(O)[C@@H](N(C)C)[C@@H]3C[C@@H]1C2 [Compound 13] | 16 (≈ 28.5 µM) | 1 (≈ 1.78 µM) | 0.5 (≈ 0.892 µM) | 0.0625 (≈ 0.111 µM) | ≤ 0.0156 | ≤ 0.0156 | 0.25 (≈ 0.446 µM) | 0.125 (≈ 0.223 µM) | ≤ 0.0156 | ≤ 0.0156 | 4 (≈ 7.14 µM) | 2 (≈ 3.57 µM) | 0.25 (≈ 0.446 µM) | ≤ 0.0156 | 0.0625 (≈ 0.111 µM)
6 | CN(C)[C@H]1CCN(CC(=O)Nc2cc(F)c3c(c2O)C(=O)C2=C(O)[C@]4(O)C(=O)C(C(N)=O)=C(O)[C@@H](N(C)C)[C@@H]4C[C@@H]2C3)C1 [Compound 38] | > 32 | > 32 | > 32 | 16 (≈ 26.6 µM) | 2 (≈ 3.32 µM) | 8 (≈ 13.3 µM) | > 32 | > 32 | 8 (≈ 13.3 µM) | 8 (≈ 13.3 µM) | > 32 | > 32 | 32 (≈ 53.2 µM) | 8 (≈ 13.3 µM) | 16 (≈ 26.6 µM)
